Columns and labels:
HuTu-80 cells [1] = assay: cells; assay type: cell-based
Description: (§1) According to our previous data and data published by other research groups, chemical transformations of bile acids can greatly improve their antitumor potential. Thus, as the first step of evaluation of the biological activities of our novel DCA derivatives we assessed their effects on tumor cell viability. The cytotoxicity of the compounds was investigated with respect to a panel of cultured cell lines, including human duodenal HuTu-80, hepatocellular HepG2, cervical KB-3-1 and lung A549 carcinomas as well as murine macrophage RAW264.7 and non-transformed human fibroblasts hFF3 by MTT assay.
(§2) Human duodenal carcinoma HuTu-80 cells, human hepatocellular carcinoma HepG2 cells, human cervical carcinoma KB-3-1 cells, human lung carcinoma A549 cells were obtained from the Russian Cell Culture Collection (Institute of Cytology, RAS, St. Petersburg, Russia). Non-transformed human fibroblasts hFF3 were kindly provided by Dr. Olga Koval (Institute of Chemical Biology and Fundamental Medicine, SB RAS, Novosibirsk, Russia). RAW264.7 macrophages were kindly provided by Prof. Dr. Dmitry Kuprash (Engelhardt Institute of Molecular Biology, RAS, Moscow, Russia). The cells were cultured in DMEM (Sigma-Aldrich Inc., St. Louis, MO, USA) supplemented with 10% (v/v) heat-inactivated fetal bovine serum (FBS) (BioloT, St. Petersburg, Russia), 100 U/mL penicillin (ICN Biomedicals Inc., Costa Mesa, CA, USA), 100 µg/mL streptomycin and 0.25 µg/mL amphotericin; additionally, in the case of RAW264.7 cells, concentration of glucose in the medium was increased up to 4.5 mg/mL. The cells were incubated at 37 °C in 5% CO2 and 95% air (hereafter referred to as standard conditions). DCA derivatives were dissolved in DMSO to yield stock solutions of 10 mmol/L and stored at −20 °C prior to use.
(§3) Cells were seeded in triplicate in 96-well plates at a density of 5 × 10^3 (HuTu-80, HepG2, KB-3-1, hFF3), 10^4 (A549) or 5 × 10^4 (RAW264.7) cells per well. Cells were incubated under standard conditions for 24 h and then they were treated with varying doses of investigated derivatives for subsequent 24 h. Then 10 µL of MTT solution (5 mg/mL) were added to each wells and cells were incubated for an additional 2 h under standard conditions. The crystals of formazan forming within live cells were solubilized with DMSO and the absorbance was measured in a Multiscan RC plate reader (Thermo LabSystems, Helsinki, Finland) at a test and reference wavelengths of 570 nm and 620 nm, respectively. […] To perform SAR analysis, hierarchical clustering of compounds based on their IC50 values was fulfilled with Euclidean distance by using the Morpheus tool (https://software.broadinstitute.org/morpheus/), a platform designed for visualization and analysis of data in a matrix format. Heatmap, containing compounds’ SI values, were constructed by using the Excel 2010 software (Microsoft, Redmond, WA, USA). In order to reveal whether ROS participate in the induction of cell death by compound 9, HuTu-80 cells cultured in 96-well plate were pretreated by NAC at 2 mM for 1 h. Thereafter, the medium was replaced by fresh medium with compound 9 at 8 µM and the cells were incubated with subsequent 24 h under standard conditions. After this time period, the curves of cytotoxicity of compound 9 in the presence or absence of NAC were compared.

HepG2 cells = assay: MTT cytotoxicity assay, HepG2; assay type: cell-based, human
Description: as §1, §2, §3

A549 cells = assay: MTT cytotoxicity assay, A549; assay type: cell-based, human
Description: as §1, §2, §3

HuTu-80 cells [2] = assay: Annexin V FITC/PI apoptosis detection; assay type: cell-based, human; details: 8 µM; for late apoptotic cells (Annexin V FITC+/PI+): control 1.5%; for early apoptotic cells (Annexin V FITC+/PI-): control 2.9%
Experimental: In the first step of the mechanistic study, the effect of compound 9 on phosphatidylserine (PS) externalization, a marker of the early phase of apoptosis, was analyzed by double staining of compound 9-treated HuTu-80 cells by annexin V FITC and propidium iodide (PI). Live cells are characterized by lipid membrane asymmetry—PS is mainly present in the inner leaflet of the plasma membrane, whereas phosphatidylcholine and sphingomielin are restricted to the outer leaflet. During apoptosis the activity of enzymes involved in membrane lipid scrambling […] and PS is exposed on cell surface. Annexin V is a protein that has a high affinity for PS and its conjugates with fluorophores can be used to estimate the level of PS externalization in vitro. Usage of PI gives in turn an opportunity to identify late apoptotic and necrotic cells displaying increased membrane permeability.
HuTu-80 cells were seeded in 6-well plates at a density of 5 × 10^5 cells per well and incubated for 24 h under standard conditions. Then the medium was replaced with fresh medium containing compound 9 at 8 µM. In order to determine induction of apoptosis, cells were harvested at 6, 18 and 24 h post treatment. Cells were detached with trypsin, washed with cold PBS and then resuspended gently in binding buffer at concentration of 10^6 cells/mL. Thereafter, cells were stained with fluorescein isothiocyanate (FITC)-conjugated Annexin V and PI (Annexin V-FITC Apoptosis Detection Kit, Millipore, Bedford, MA, USA) for 15 min in the dark and subsequently analyzed using NovoCyte Flow Cytometer (ACEA Biosciences Inc., San Diego, CA, USA). For each sample, 10.000 events were acquired.

KB-3-1 cells = assay: MTT cytotoxicity assay, KB-3-1; assay type: cell-based, human
Description: as §1, §2, §3

[3] = test system: caspase-3/7 in HuTu-80 cells; assay: Caspase-3/-7 activity (Caspase-Glo 3/7); assay type: cell-based, human; details: 8 µM, 18 h and 24 h time points
Experimental: In the next step of the study our attention was focused on understanding the ability of compound 9 to activate caspases—a family of cysteine proteases, being critical mediators of apoptosis. In order to perform this, we evaluated the effect of compound 9 on activity of key executioner caspases-3 and -7 responsible for proteolytic cleavage of many proteins in the culminating step of cell death.
The caspase-3/-7 activity in HuTu-80 cells was assessed by using Caspase-Glo® 3/7 Assay kit (Promega, Madison, WI, USA) according to the manufacturer’s instructions. Briefly, the cells were seeded in white-walled 96-well plates at a density of 10^4 cells/well for 24. After incubation, cells were treated with compound 9 at 8 µM for 6, 18 or 24 h and then 100 µL of Caspase-Glo® 3/7 reagent was added to each well. The plate was carefully shaken for 30 sec on a plate mixer and afterwards incubated for 30 min at room temperature in the dark. The luminescence was detected using CLARIOstar plate reader (BMG Labtech, Ortenberg, Germany).

`COC(=O)CC[C@@H](C)[C@H]1CC[C@H]2[C@@H]3CC[C@@H]4CC(O)(CNCCCO)CC[C@]4(C)[C@H]3CC(=O)[C@]12C` (stereo partly drawn) [Compound 9, Methyl 3-hydroxy-3-((3-hydroxypropylamino)methyl)-12-oxo-5β-cholan-24-oate] was tested, and the IC50 (HuTu-80 cells [1]; Homo sapiens, HuTu80, MTT, 24 h, read-out: IC50 HuTu-80 (duodenum)) was 4 ± 0.5 µM, the “Selectivity index HuTu-80” value (HuTu-80 cells [1]; ratio IC50 hFF3 / IC50 HuTu-80) was 8.3 and the IC50 (HepG2 cells; Homo sapiens, HepG2, MTT, 24 h, read-out: IC50 HepG2 (liver)) was 7.3 ± 0.6 µM. For the same molecule, the “Selectivity index HepG-2” value (HepG2 cells; ratio IC50 hFF3 / IC50 HepG2) was 4.5, the IC50 (A549 cells; Homo sapiens, A549, MTT, 24 h, read-out: IC50 A549 (lung)) was 29 ± 3.5 µM and the “Selectivity index A549” value (A549 cells; ratio IC50 hFF3 / IC50 A549) was 1.1. The “late apoptotic cells (Annexin V FITC+/PI+)” value (HuTu-80 cells [2]; 18 h) was 4.9%, the “early apoptotic cells (Annexin V FITC+/PI-)” value (HuTu-80 cells [2]; 18 h) was 23.5% and the “late apoptotic cells (Annexin V FITC+/PI+)” value (HuTu-80 cells [2]; 24 h) was 10.6%. For the same molecule, the “early apoptotic cells (Annexin V FITC+/PI-)” value (HuTu-80 cells [2]; 24 h) was 36.1%, the “necrotic cells (Annexin V FITC-/PI+)” value (HuTu-80 cells [2]; all time points (6, 18, 24 h)) was at most 1.1% and the IC50 (KB-3-1 cells; Homo sapiens, KB 3-1, MTT, 24 h, read-out: IC50 KB3-1 (cervix)) was 22.8 ± 1.8 µM. For the same molecule, the “Selectivity index KB-3-1” value (KB-3-1 cells; ratio IC50 hFF3 / IC50 KB-3-1) was 1.4 and the caspase-3/7 activity [3] was “significantly increased”.

Reference: article PMC6681416, “Novel Derivatives of Deoxycholic Acid Bearing Linear Aliphatic Diamine and Aminoalcohol Moieties and their Cyclic Analogs at the C3 Position: Synthesis and Evaluation of Their In Vitro Antitumor Potential” (Molecules, 2019)
